The term IC50 denotes the concentration that inhibits the measured activity by half.

Each structure is given as a SMILES string. Residue numbers refer to the chain shown, from its start. Bounds are passed on as bounds.

Our source for the IC50 values is ChEMBL document CHEMBL2169839 (J Med Chem, 2012).

Experiment [1] has as its target T1, Aldo-keto reductase family 1 member C4 (Homo sapiens, UniProt P17516).
T1 sequence (P17516 whole entry): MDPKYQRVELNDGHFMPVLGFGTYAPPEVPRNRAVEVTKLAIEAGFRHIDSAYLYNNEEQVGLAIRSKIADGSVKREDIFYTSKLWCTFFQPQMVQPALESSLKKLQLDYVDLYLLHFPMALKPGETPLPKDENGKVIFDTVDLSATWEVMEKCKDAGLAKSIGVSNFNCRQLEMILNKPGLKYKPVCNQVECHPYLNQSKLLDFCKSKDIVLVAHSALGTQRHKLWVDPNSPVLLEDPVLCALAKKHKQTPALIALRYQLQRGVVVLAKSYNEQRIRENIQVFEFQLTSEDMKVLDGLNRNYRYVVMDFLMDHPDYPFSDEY

In experiment [2] the target is T2, Aldo-keto reductase family 1 member C2 (Homo sapiens, UniProt P52895).
T2 sequence (P52895 whole entry): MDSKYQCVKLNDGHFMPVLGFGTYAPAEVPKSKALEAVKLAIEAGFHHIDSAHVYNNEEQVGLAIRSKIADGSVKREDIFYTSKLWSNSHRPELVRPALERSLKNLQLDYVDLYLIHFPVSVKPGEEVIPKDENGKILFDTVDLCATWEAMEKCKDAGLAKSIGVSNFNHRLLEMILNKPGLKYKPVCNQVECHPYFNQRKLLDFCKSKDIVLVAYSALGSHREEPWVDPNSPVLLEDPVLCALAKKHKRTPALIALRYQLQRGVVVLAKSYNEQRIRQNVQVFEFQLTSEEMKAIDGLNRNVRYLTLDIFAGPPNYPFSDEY

Experiment [3] has as its target T3, Aldo-keto reductase family 1 member C1 (Homo sapiens, UniProt Q04828).
T3 sequence (Q04828 whole entry): T2 sequence (P52895 whole entry) with V38T, H47R, V54L, S87C, M151V, H170R, L172Q

Experiment [4] deals with T4, Aldo-keto reductase family 1 member C3 (Homo sapiens, UniProt P42330).
T4 sequence (P42330 whole entry): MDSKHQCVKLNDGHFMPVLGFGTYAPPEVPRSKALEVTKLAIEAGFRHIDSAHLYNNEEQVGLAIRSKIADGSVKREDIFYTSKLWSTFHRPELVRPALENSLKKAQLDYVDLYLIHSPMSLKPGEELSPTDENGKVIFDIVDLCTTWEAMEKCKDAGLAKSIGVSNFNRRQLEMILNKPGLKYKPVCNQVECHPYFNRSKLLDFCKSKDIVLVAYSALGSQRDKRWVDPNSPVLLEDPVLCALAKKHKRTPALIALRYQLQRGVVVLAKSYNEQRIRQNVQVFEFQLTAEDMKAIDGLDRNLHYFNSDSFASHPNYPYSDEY
The experiment is described as follows: biochemical.
Description: Inhibition of human recombinant N-terminal His6-tagged AKR1C3 expressed in Escherichia coli BL21(DE3) cells using 8-Acetyl-2,3,5,6-tetrahydro-1H,4H-11-oxa-3a-aza-benzo[de]anthracen-10-one as substrate after 1 hr by fluorimetric analysis

Experiment [5] deals with T4, Aldo-keto reductase family 1 member C3. The experiment is described as follows: Inhibition of AKR1C3 overexpressed in human HCT116 cells assessed as inhibition of PR-104A conversion to hydroxylamine after 2 hrs by LC-MS/MS analysis.

As to `O=C(O)c1ccc(S(=O)(=O)N2CCc3ccccc3C2)cc1`, the concentration for half-maximal inhibition (IC50) in experiment [1] is > 30 µM; in experiment [2], > 30 µM; in experiment [3], > 30 µM; in experiment [4] it was 1.24 µM; in experiment [5], > 1 µM.
With `O=C(O)c1cccc(S(=O)(=O)NCCc2ccccc2)c1`, the concentration for half-maximal inhibition (IC50) in experiment [1] is > 30 µM; in experiment [2], > 30 µM; in experiment [3], > 30 µM; in experiment [4], 0.22 µM; in experiment [5] it was > 1 µM.
For the compound `O=C(O)C(=O)Nc1cccc(S(=O)(=O)N2CCc3ccccc3C2)c1`, the 50% inhibitory concentration (IC50) in experiment [1] was > 30 µM; in experiment [2], > 30 µM; in experiment [3], > 30 µM; in experiment [4], 0.062 µM; in experiment [5], > 1 µM.
In the case of `O=S(=O)(c1cccc(-c2nnn[nH]2)c1)N1CCc2ccccc2C1`, the half-maximal inhibitory concentration (IC50) in experiment [1] was > 30 µM; in experiment [2] it was > 30 µM; in experiment [3] it was > 30 µM; in experiment [4], 0.0095 µM; in experiment [5] it was 0.897 µM.
Regarding `O=C(c1cccc(S(=O)(=O)N2CCc3ccccc3C2)c1)N1CCOCC1`, the IC50 is > 30 µM in experiment [1]; > 30 µM in experiment [2]; > 30 µM in experiment [3]; 0.078 µM in experiment [4]; 0.013 µM in experiment [5].
On to `CNC(=O)c1cccc(S(=O)(=O)N2CCc3ccccc3C2)c1`, for which the IC50 in experiment [1] was > 30 µM; in experiment [2], > 30 µM; in experiment [3] it was > 30 µM; in experiment [4], 0.05 µM; in experiment [5] it was 0.013 µM.
Consider `CN(C)C(=O)c1cccc(S(=O)(=O)N2CCc3ccccc3C2)c1`, for which the IC50 in experiment [1] is > 30 µM; in experiment [2], > 30 µM; in experiment [3], > 30 µM; in experiment [4], 0.053 µM; in experiment [5], 0.014 µM.
`O=C(NCCc1ccncc1)c1cccc(S(=O)(=O)N2CCc3ccccc3C2)c1`: the IC50 in experiment [1] is > 30 µM; in experiment [2] it was > 30 µM; in experiment [3], > 30 µM; in experiment [4], 0.058 µM; in experiment [5], 0.035 µM.
Consider `O=C1CCCN1c1ccc(S(=O)(=O)N2CCc3ccccc3C2)cc1`, for which the IC50 in experiment [1] was > 30 µM; in experiment [2], > 30 µM; in experiment [3], > 30 µM; in experiment [4] it was 0.042 µM; in experiment [5], 0.024 µM.
On to `O=C(O)c1cccc(S(=O)(=O)N2CCc3ccc([N+](=O)[O-])cc3C2)c1`, for which the IC50 was > 30 µM in experiment [1]; > 30 µM in experiment [2]; > 30 µM in experiment [3]; 0.017 µM in experiment [4]; 0.072 µM in experiment [5].
`O=C(O)c1cccc(S(=O)(=O)N2CCc3ccc(F)cc3C2)c1`: the IC50 in experiment [1] is > 30 µM; in experiment [2] it was > 30 µM; in experiment [3] it was > 30 µM; in experiment [4] it was 0.021 µM; in experiment [5], 0.024 µM.
Regarding `O=C(O)c1cccc(S(=O)(=O)N2CCc3ccc(Cl)cc3C2)c1`, the IC50 was > 30 µM in experiment [1]; > 30 µM in experiment [2]; > 30 µM in experiment [3]; 0.02 µM in experiment [4]; > 1 µM in experiment [5].
For the compound `O=C(O)c1cccc(S(=O)(=O)N2CCc3ccc(Br)cc3C2)c1`, the IC50 was > 30 µM in experiment [1]; > 30 µM in experiment [2]; > 30 µM in experiment [3]; 0.012 µM in experiment [4]; 0.02 µM in experiment [5].
Take `O=C(O)c1cccc(S(=O)(=O)N2CCc3ccc(I)cc3C2)c1`: the IC50 was > 30 µM in experiment [1]; > 30 µM in experiment [2]; > 30 µM in experiment [3]; 0.014 µM in experiment [4]; 0.045 µM in experiment [5].
Consider `N#Cc1ccc2c(c1)CN(S(=O)(=O)c1cccc(C(=O)O)c1)CC2`, for which the half-maximal inhibitory concentration (IC50) in experiment [1] is > 30 µM; in experiment [2] it was > 30 µM; in experiment [3], > 30 µM; in experiment [4], 0.034 µM; in experiment [5], 0.266 µM.
With `O=C(O)c1cccc(S(=O)(=O)N2CCc3cccc(Cl)c3C2)c1`, the 50% inhibitory concentration (IC50) in experiment [1] was > 30 µM; in experiment [2] it was 12.1 µM; in experiment [3], 0.74 µM; in experiment [4], 0.019 µM; in experiment [5], 0.028 µM.
For `COc1cc2c(cc1OC)CN(S(=O)(=O)c1cccc(C(=O)O)c1)CC2`, in that order: > 30 µM, > 30 µM, > 30 µM, 0.16 µM and > 1 µM.
For `O=C(O)c1cccc(S(=O)(=O)NCCc2cccc(Cl)c2)c1`, in that order: > 30 µM, > 30 µM, > 30 µM, 0.21 µM and > 1 µM.
As for `O=C(O)c1cccc(S(=O)(=O)NCCc2ccc(Cl)cc2)c1`, the IC50 in experiment [1] is > 30 µM; in experiment [2], > 30 µM; in experiment [3], > 30 µM; in experiment [4] it was 0.14 µM; in experiment [5] it was > 1 µM.
On to `O=C(O)c1cccc(S(=O)(=O)N2CCc3c(Cl)cccc3C2)c1`, for which the IC50 in experiment [1] was > 30 µM; in experiment [2], 9.32 µM; in experiment [3] it was > 30 µM; in experiment [4], 0.011 µM; in experiment [5] it was 0.016 µM.
Turning to `O=C(O)c1cccc(S(=O)(=O)N2CCc3c(Br)cccc3C2)c1`, the IC50 in experiment [1] is > 30 µM; in experiment [2] it was > 30 µM; in experiment [3], > 30 µM; in experiment [4] it was 0.011 µM; in experiment [5], 0.014 µM.
Take `O=C(O)c1cccc(S(=O)(=O)N2CCc3c(I)cccc3C2)c1`: the IC50 in experiment [1] is > 30 µM; in experiment [2], > 30 µM; in experiment [3] it was > 30 µM; in experiment [4], 0.014 µM; in experiment [5], 0.02 µM.
For the compound `O=C(O)c1cccc(S(=O)(=O)N2CCc3c(O)cccc3C2)c1`, the IC50 in experiment [1] was > 30 µM; in experiment [2], > 30 µM; in experiment [3], 25.6 µM; in experiment [4], 0.016 µM; in experiment [5], 0.453 µM.
For `COc1cccc2c1CCN(S(=O)(=O)c1cccc(C(=O)O)c1)C2`, the IC50 is > 30 µM in experiment [1]; > 30 µM in experiment [2]; > 30 µM in experiment [3]; 0.016 µM in experiment [4]; 0.039 µM in experiment [5].
`Cc1ccc2c(c1)CCN(S(=O)(=O)c1cccc(C(=O)O)c1)C2`: the IC50 is > 30 µM in experiment [1]; > 30 µM in experiment [2]; > 30 µM in experiment [3]; 0.017 µM in experiment [4]; 0.052 µM in experiment [5].
As to `O=C(O)c1cccc(S(=O)(=O)N2CCc3cc([N+](=O)[O-])ccc3C2)c1`, the IC50 in experiment [1] is > 30 µM; in experiment [2], > 30 µM; in experiment [3], > 30 µM; in experiment [4], 0.022 µM; in experiment [5], > 1 µM.
Turning to `O=C(O)c1cccc(S(=O)(=O)N2CCc3cc(Cl)ccc3C2)c1`, the IC50 in experiment [1] was > 30 µM; in experiment [2], > 30 µM; in experiment [3] it was 7.48 µM; in experiment [4], 0.0087 µM; in experiment [5], 0.039 µM.
For `O=C(O)c1cccc(S(=O)(=O)N2CCc3cc(Br)ccc3C2)c1`, the IC50 in experiment [1] is > 30 µM; in experiment [2], > 30 µM; in experiment [3], > 30 µM; in experiment [4], 0.0061 µM; in experiment [5], 0.012 µM.
With `O=C(O)c1cccc(S(=O)(=O)N2CCc3cc(O)ccc3C2)c1`, the IC50 in experiment [1] was > 30 µM; in experiment [2], > 30 µM; in experiment [3], > 30 µM; in experiment [4] it was 0.027 µM; in experiment [5] it was > 1 µM.
In the case of `COc1ccc2c(c1)CCN(S(=O)(=O)c1cccc(C(=O)O)c1)C2`, the 50% inhibitory concentration (IC50) in experiment [1] is > 30 µM; in experiment [2] it was > 30 µM; in experiment [3], > 30 µM; in experiment [4], 0.038 µM; in experiment [5] it was 0.39 µM.
For the compound `Cc1ccc2c(c1)CN(S(=O)(=O)c1cccc(C(=O)O)c1)CC2`, the IC50 is > 30 µM in experiment [1]; > 30 µM in experiment [2]; > 30 µM in experiment [3]; 0.013 µM in experiment [4]; 0.029 µM in experiment [5].
